Results from patent US20100203123A1, “METHODS FOR IMPROVING COGNITIVE FUNCTION AND DECREASING HEART RATE” (MARTEK BIOSCIENCES CORPORATION, priority 2009, published 2010).

Tested on: healthy elderly subjects with a mild memory complaint
Experiment: Geriatric Depression Scale
Format: in vivo, human
Conditions: 6 month study, not different between groups
Excerpt: During the Screening Period, subjects were selected on the basis of specific inclusion and exclusion criteria, including a screening Logical Memory sub-test of the Wechsler Memory Scale (WMS III). See e.g., Wechsler, D., Administration and Scoring Manual, 3rd ed. San Antonio, Tex.: Harcourt Brace & Company, 1997. In addition to the Logical Memory sub-test, the Mini-Mental State Examination (MMSE), Geriatric Depression scale, and a test of visual acuity and a DHA Food Frequency Questionnaire were administered to all subjects at screening. See e.g., Folstein et al., Pyschiatr. Res. 12:189-198 (1975); Yesavage J., et al., J Psychiatr. Res. […] (1982). Eligible subjects who meet the screening criteria were given a pre-baseline training session with the computerized cognitive battery, CANTAB.
Other secondary measures included self-assessment tests of memory (Frequency of Forgetting-10 scale) (Zelinski, E. M. et al., Aging and Mental Health […]), Alzheimer's Disease Cooperative Study-Activities of Daily Living Prevention Instrument (ADCS-ADL PI scale) (Galasko, D., Alzheimer Dis. Assoc. Disord. 20:S152-69 (200)), Mini-Mental State Examination (MMSE) (Folstein et al., Pyschiatr. Res. 12:189-198 (1975) and the Geriatric Depression Scale (Yesavage, J., et al., J Psychiatr. Res. […]).

CC/C=C\C/C=C\C/C=C\C/C=C\C/C=C\C/C=C\CCC(=O)O [DHA, (all-Z)-4,7,10,13,16,19-docosahexaenoic acid]
Geriatric Depression scale: unchanged
